Data as given in patent publication US20090148391A1, “[…] ACTIVE PREPARATIONS COMPRISING […] DERIVATIVES AND FURTHER SKIN AND/OR HAIR LIGHTENING AND/OR SENILE KERATOSIS REDUCING COMPOUNDS” (SYMRISE GmbH & Co. KG, priority 2006, published 2009).

Columns and labels:
[1] = test system: 3T3 firbrosarcoma cells; conditions: cited from earlier work
[2] = test system: B16V mouse melanoma cells; conditions: cited from earlier work
[3] = test system: fungal-tyrosinase; assay: Tyrosinase-Assay: oxidation of L-DOPA to dopachrome with or without test substance, photometric detection at 475 nm; assay type: biochemical; conditions: weight ratio of the mixture; 50 u/ml fungal-tyrosinase, pH 6.8, 37° C., L-DOPA 0.1 mg/ml
Procedure: The principle of the assay is to oxidise L-DOPA to dopachrome with or without the test substance under physiological conditions in a controlled reaction. Dopachrome and dopaquinone is detected via photometric detection methods. Commercially available fungal-tyrosinase is used for testing the enzyme activity and the correlating inhibition of melanin production.
The enzymatic reaction was conducted with or without a potential inhibitor of the tyrosinase of constituents (a) and (b), such as styrylresorcinol of formula 3 (more than 99% purity) of constituent (a) alone, specific compounds of the constituent b) selected from the group consisting of (i) chelating agents, (ii) phenolic derivatives, plant extracts with an amount of phenolic derivatives and (iii) organic acid derivatives alone, as well as mixtures thereof.
The concentrations of the inhibitor or a mixture thereof range from 0.1 to 1000 μg/ml. The enzyme activity was adjusted to 50 u/ml fungal-tyrosinase in 66.7 mM phosphate buffer (pH=6.8). The reaction mixture was incubated for 10 minutes in a 96-well microtiter plate in a horizontal agitator at 37° C. Then L-DOPA (end concentration: 0.1 mg/ml). The enzymatic conversion to dopachrome is related to the inhibition activity of the single test substances or the mixture thereof, which is shown in a brown discolouration, which can be detected at 475 nm. […]

SMILES	tyrosinase-inhibiting activity [1]	tyrosinase-inhibiting activity [2]	Ratio 4-(1-phenylthyl)-1,3-dihydroxybenzene CARN 85-27-8:(i) Chelating Agent showing synergistic enhanced lightening activity in the tyrosinase assay [3]
CC(c1ccccc1)c1ccc(O)cc1O (stereo not drawn) [styrylresorcinol of the formula 3, 4-(1-phenylethyl)-1,3-dihydroxybenzene]	clearly demonstrated	clearly demonstrated	
O=c1cc(CO)occ1O [Kojic acid, 5-hydroxy-2-hydroxymethyl-4-pyranone]			1.3
